Results: patent publication US11440923B2, “Substituted macrocyclic indole derivatives” (Bayer Aktiengesellschaft, priority 2017, dated 2022)
Counter-ions that a name gives are not always drawn. Like-named read-outs stand apart in the source and are kept apart here. One block for each compound: values may come before it.

Experiments:
[1] = 11-membered ring
MCL-1 = MCL-1 (Homo sapiens (Human), UniProt Q07820, K194A/K197A/R201A); experiment: Protein-protein interaction assay MCL-1/Noxa BH3 peptide (MCL-1 assay, TR-FRET); format: binding; details: MCL-1 Assay IC50 (median)
Protocol: The dose-dependent inhibition by the compounds described in this invention of the interaction between MCL-1 and the BH3 domain of Noxa (both human) was determined using a steady state binding competition assay with time-resolved fluorescence energy transfer (TR-FRET) readout. For that purpose MCL-1 (amino acids 173-321, N-terminal fused to Maltose Binding Protein (MBP) SEQ ID 1)) and a synthetic Noxa BH3-derived peptide of sequence Biotin-PEG2-PEG2-PAELEVE-Nva-[…]-amide (SEQ ID 2) served as protein receptor and tracer ligand respectively. The MBP-MCL-1 was purchased from Beryllium (Bedford, Mass., USA). The expression and purification of this protein construct has been described elsewhere (DOI:10.1371/journal.pone.0125010). The Noxa BH3-derived peptide can be obtained from e.g. Biosyntan (Berlin, Germany).
For that, 100-fold concentrated DMSO solutions were prepared by serial dilutions (1:3.4) of a 2 mM stock solution in a clear, 384-well microtiter plate (Greiner Bio-One, Frickenhausen, Germany). From there, 50 nl were transferred in a dark test plate (Greiner Bio-One, Frickenhausen, Germany). The assay was initiated by addition of 2 μL of a 2,5-fold concentrated MBP-MCL-1 solution (usually for a 1 nM end concentration in 5 μL reaction volume) in aqueous assay buffer [50 mM Tris/HCl pH 7, 100 mM sodium chloride (NaCl), 50 mM potassium fluoride (KF), 0.005% Tween-20, 2 mM DTT, 0.1% bovine gamma globulin (BGG)] to the compounds in the assay plate. This was followed by a 10-minute incubation step at 22° C. for pre-equilibration of the putative complex between MBP-MCL-1 and the compounds.
The mixture was incubated in the dark for one hour at 22° C. and then overnight at 4° C. The formation of MCL-1/Noxa complexes was determined by measuring the resonance energy transfer of the anti-MBP-Eu-cryptate antibody to the streptavidin-XL665 present in the reaction.
For that purpose, the fluorescence emission at 620 nm and 665 nm after excitation at 330-350 nm was measured in a TR-FRET measuring instrument, for instance a Rubystar or a Pherastar (both from BMG Lab Technologies, Offenburg, Germany) or a Viewlux (Perkin-Elmer). The ratio of the emission at 665 nm and at 622 nm was used as indicator of the amount of MCL-1/NOXA complexes present.
The resulting data (ratio) were normalized, taking 0% inhibition as the mean value of control measurements (usually 32 data points) where all reagents were included. In this case 50 nl DMSO were used instead of compounds. […] IC50 values were determined by regression analysis based on a 4 parameter equation (minimum, maximum, IC50, Hill; Y=Max+(Min−Max)/(1+(X/IC50)^Hill) using the Screener Software (Genedata).

SUDHL5 cells [2] = experiment: Induction of caspase-3/7 activity in SUDHL5 cells (Assay 4); format: cell-based
Procedure, shortened: (§1)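 Caspase-3/7 activity measured in DLBCL lines after 3 h compound exposure at 37 °C, following overnight plating; Caspase-Glo 3/7 luminescence read after 1 h at 37 °C. Medium-only background subtracted, values normalized to mean of DMSO-treated cells.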

SUDHL10 cells [3] = experiment: Induction of caspase-3/7 activity in SUDHL10 cells (Assay 4); format: cell-based
Procedure, shortened: as §1

SUDHL5 cells [4] = experiment: Induction of cytotoxicity in SUDHL5 cells (Assay 6); format: cell-based; details: 5 h, CellTiter-Glo; read-out: Cytotox SUDHL5 IC50 (median)
Procedure, shortened: (§2)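 Cells plated overnight at 37 °C, then exposed to compound for 5 h in a humidified incubator at 37 °C. Viability read by CellTiter-Glo luminescence after 15 min shaking at room temperature; cell-free medium served as control.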

SUDHL10 cells [5] = experiment: Induction of cytotoxicity in SUDHL10 cells (Assay 6); format: cell-based; details: 5 h, CellTiter-Glo; read-out: Cytotox SUDHL10 IC50 (median)
Procedure, shortened: as §2

SUDHL5 cells [6] = experiment: Antiproliferation assay SUDHL5 (Assay 7); format: cell-based
Procedure, shortened: (§3)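 Luminescent viability signal (CellTiter-Glo) after 72 h of treatment served as read-out. IC50 values were derived with day 0 luminescence as CI and DMSO wells as C0.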

AMO-1 cells = experiment: Antiproliferation assay AMO-1 (Assay 7); format: cell-based
Procedure, shortened: as §3

HMC-1-8 cells = experiment: Antiproliferation assay HMC-1-8 (Assay 7); format: cell-based
Procedure, shortened: as §3

SNU-389 cells = experiment: Antiproliferation assay SNU-389 (Assay 7); format: cell-based; details: 72 h, read-out: Antiproli SNU-389 IC50
Protocol: (§4) Assessment of the Anti-Proliferative Effect of Compounds in Different Cell Lines
(§5) The impact of compounds on the proliferation of different cell lines was assessed using the CellTiter-Glo® Luminescent Cell Viability reagent from Promega (G7573).
(§6) In parallel, cells were plated in a reference (day 0) plate for time zero determination. Cells were incubated in a humidified incubator at 37° C. overnight.
(§7) Rim wells were excluded. The cells were incubated for 72 h hours in a humidified incubator at 37° C. The day 0 plate was measured by adding 30 μL/well of CTG solution (CellTiter-Glo® Luminescent Cell Viability reagent, Promega G7573) to time zero wells in the reference plate followed by a 10 minutes incubation and luminescence reading at 0.1 ms. using the PHERAstar FS microplate reader (BMG Labtech).
(§8) After 72 h incubation, the treated plates were measured in the same way as the day 0 plate mentioned above. The Bella DRC Master Sheet was used to calculate IC50s, with CI=day 0 values and C0=DMSO control values.

SK-MEL-2 cells = experiment: Antiproliferation assay SK-MEL-2 (Assay 7); format: cell-based; details: Homo sapiens, read-out: Antiproli SK-MEL-2 IC50 median
Protocol: as §4, §5, §6, §7, §8

SNU-16 cells = experiment: Antiproliferation assay SNU-16 (Assay 7); format: cell-based; details: Homo sapiens, read-out: Antiproli SNU-16 IC50 median
Protocol: as §4, §5, §6, §7, §8

A-431 cells = experiment: Antiproliferation assay A-431 (Assay 7); format: cell-based; details: Homo sapiens, read-out: Antiproli A-431 IC50 median
Protocol: as §4, §5, §6, §7, §8

PA-1 cells = experiment: Antiproliferation assay PA-1 (Assay 7); format: cell-based; details: Homo sapiens, read-out: Antiproli PA-1 IC50 median
Protocol: as §4, §5, §6, §7, §8

DMS-114 cells = experiment: Antiproliferation assay DMS-114 (Assay 7); format: cell-based; details: Homo sapiens, read-out: Antiproli DM-S114 IC50 median
Protocol: as §4, §5, §6, §7, §8

MV-4-11 cells = experiment: Antiproliferation assay MV-4-11 (Assay 7); format: cell-based; details: 72 h, CellTiter-Glo; read-out: Antiproli MV-4-11 IC50 median
Protocol: as §4, §5, §6, §7, §8

A2780 cells = experiment: Antiproliferation assay A2780 (Assay 7); format: cell-based; details: 72 h, CellTiter-Glo; read-out: Antiproli A2780 IC50 median
Protocol: as §4, §5, §6, §7, §8

[7] = 72 h, CellTiter-Glo; read-out: Antiproli AMO-1 IC50 median
[8] = 72 h, CellTiter-Glo; read-out: Antiproli HMC-1-8 IC50 median

MCL-1, sequence (Q07820 whole entry, looked up, stated change not applied, the tested form may be a part): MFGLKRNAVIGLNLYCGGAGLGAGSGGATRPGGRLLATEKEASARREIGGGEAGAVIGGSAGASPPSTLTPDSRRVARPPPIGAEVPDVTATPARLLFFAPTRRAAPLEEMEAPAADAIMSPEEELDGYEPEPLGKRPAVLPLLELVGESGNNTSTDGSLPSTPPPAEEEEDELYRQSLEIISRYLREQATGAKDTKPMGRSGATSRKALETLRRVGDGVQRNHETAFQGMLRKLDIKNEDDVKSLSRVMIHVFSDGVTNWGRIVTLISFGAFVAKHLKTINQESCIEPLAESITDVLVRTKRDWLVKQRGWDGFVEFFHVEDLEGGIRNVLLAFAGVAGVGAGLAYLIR

Compound: CCOC(=O)c1c(CCCOc2cccc3cc(F)ccc23)c2ccc(Cl)c3c2n1CCC(F)(F)COC(CCN1CCOCC1)c1nn(C)c(CC)c1-3 (centres unmarked)
- ring closure, isolated yield ([1]; from CCOC(=O)c1[nH]c2c(-c3c(C(CCN4CCOCC4)OCC(F)(F)CCO)nn(C)c3CC)c(Cl)ccc2c1CCCOc1cccc2cc(F)ccc12, amine bond, PPh3/DTBAD, THF, 22.5 mM): 83%

Compound: CCOC(=O)c1[nH]c2c(-c3c(C(O)C4CC4)nn(C)c3CC)c(Cl)ccc2c1CCCOc1cccc2cc(F)ccc12 (racemic)
- ring closure, isolated yield ([1]; the molecule shown is the open-chain precursor, crosslinker bond, (Z)-1,4-dichlorobut-2-ene/Cs2CO3/NaI, MeCN, 197.0 mM, 70.0 °C): 59%

Compound: CCOC(=O)c1[nH]c2c(-c3c(C(O)CCN4CCOCC4)nn(C)c3CC)c(F)ccc2c1CCCOc1cccc2ccccc12 (racemic)
- ring closure, isolated yield ([1]; the molecule shown is the open-chain precursor, crosslinker bond, (Z)-1,4-dichlorobut-2-ene/Cs2CO3/NaI, MeCN, 98.0 mM, […]): 50%

- IC50 (MCL-1): 0.54 nM
- EC50 (SUDHL5 cells [2]; caspase-3/7 induction, 3 h; read-out: Caspase SUDHL5 EC50 (median)): 83 nM
- EC50 (SUDHL10 cells [3]; caspase-3/7 induction, 3 h; read-out: Caspase SUDHL10 EC50 (median)): 39 nM
- IC50 (SUDHL5 cells [6]; 72 h, CellTiter-Glo; read-out: Antiproli SUDHL5 IC50 (median)): 93 nM
- IC50 (SNU-389 cells; CellTiter-Glo): 307 nM
- IC50 (SK-MEL-2 cells; SK-MEL-2, 72 h, CellTiter-Glo): 501 nM
- IC50 (SNU-16 cells; SNU-16, 72 h, CellTiter-Glo): 1110 nM
- IC50 (A-431 cells; A-431, 72 h, CellTiter-Glo): 414 nM
Compound: CCc1c2c(nn1C)C(CCCN1CCOCC1)OCCCCn1c(C(=O)O)c(CCCOc3cccc4cc(F)ccc34)c3ccc(Cl)c-2c31 (single isomer, unassigned; enantiomer 1) [Example 66, (+)-4-chloro-3-ethyl-7-{3-[(6-fluoronaphthalen-1-yl)oxy]propyl}-2-methyl-15-[3-(morpholin-4-yl)propyl]-2,10,11,12,13,15-hexahydropyrazolo[4′,3′:9,10][1,6]oxazacycloundecino[8,7,6-hi]indole-8-carboxylic Acid (Enantiomer 1)]
- IC50 (SUDHL5 cells [4]): 110 nM
- IC50 (SUDHL10 cells [5]): 55 nM
- IC50 (AMO-1 cells; [7]): 28.5 nM
- IC50 (HMC-1-8 cells; [8]): 1160 nM
- IC50 (PA-1 cells; PA-1, 72 h, CellTiter-Glo): 829 nM
- IC50 (DMS-114 cells; DMS-114 cells, 72 h, CellTiter-Glo): 766 nM

Compound: CCc1c2c(nn1C)C(CCN1CCN(C)CC1)OCCCCn1c(C(=O)O)c(CCCOc3cccc4cc(F)ccc34)c3ccc(Cl)c-2c31 (single isomer, unassigned; stereoisomer 1) [Example 69, (+)-4-chloro-3-ethyl-7-{3-[(6-fluoronaphthalen-1-yl)oxy]propyl}-2-methyl-15-[2-(4-methylpiperazin-1-yl)ethyl]-2,10,11,12,13,15-hexahydropyrazolo[4′,3′:9,10][1,6]oxazacycloundecino[8,7,6-hi]indole-8-carboxylic Acid—N-ethylethanamine Salt (Stereoisomer 1)]
- EC50 (SUDHL5 cells [2]; read-out: Caspase SUDHL5 EC50 (median); caspase-3/7 induction, 3 h): 250 nM
- EC50 (SUDHL10 cells [3]; read-out: Caspase SUDHL10 EC50 (median); caspase-3/7 induction, 3 h): 150 nM
- IC50 (SUDHL5 cells [4]): 310 nM
- IC50 (SUDHL10 cells [5]): 300 nM
- IC50 (SUDHL5 cells [6]; read-out: Antiproli SUDHL5 IC50 (median); 72 h, CellTiter-Glo): 240 nM
- IC50 (AMO-1 cells; read-out: Antiproli AMO-1 IC50 median; 72 h, CellTiter-Glo): 212 nM
- IC50 (HMC-1-8 cells; read-out: Antiproli HMC-1-8 IC50 median; 72 h, CellTiter-Glo): 4460 nM
- IC50 (SNU-389 cells): 2410 nM
- IC50 (SK-MEL-2 cells; SK-MEL-2, 72 h): 1810 nM
- IC50 (SNU-16 cells; SNU-16, 72 h): 1490 nM
- IC50 (A-431 cells; A-431, 72 h): 1660 nM
- IC50 (PA-1 cells; PA-1, 72 h): 795 nM
- IC50 (DMS-114 cells; DMS-114, 72 h): 762 nM

- IC50 (MV-4-11 cells): 22800 nM
- IC50 (A2780 cells): > 33000 nM
Compound: Cc1c2c(nn1C)C(CCN1CCOCC1)OCCCCn1c(C(=O)O)c(CCCOc3cccc4ccccc34)c3cccc-2c31 (centres unmarked) [Example 06]

- IC50 (MV-4-11 cells): 183 nM
- IC50 (A2780 cells): 4080 nM
Compound: Cc1c2c(nn1C)C(CCN1CCOCC1)OCCCCn1c(C(=O)O)c(CCCOc3cccc4ccccc34)c3ccc(F)c-2c31 (centres unmarked) [Example 07]
- IC50 (AMO-1 cells; [7]): 463 nM
- IC50 (HMC-1-8 cells; [8]): 1610 nM

Compound: (rac)-ethyl 4-chloro-3-ethyl-7-{3-[(6-fluoronaphthalen-1-yl)oxy]propyl}-2-methyl-(15-rac)-[2-(4-methylpiperazin-1-yl)ethyl]-2,10,11,12,13,15-hexahydropyrazolo[4′,3′:9,10][1,6]oxazacycloundecino[8,7,6-hi]indole-8-carboxylate
- ring closure, isolated yield ([1]; amine bond, PPh3/DTBAD, THF, 22.7 mM): 49%

Compound: ethyl (15-rac)-4-chloro-3-ethyl-15-[2-(3-rac-(fluoroazetidin-1-yl)ethyl]-7-{3-[(6-fluoronaphthalen-1-yl)oxy]propyl}-2-methyl-2,10,11,12,13,15-hexahydropyrazolo[4′,3′:9,10][1,6]oxazacycloundecino[8,7,6-hi]indole-8-carboxylate (Mixture of Stereoisomers)
- ring closure, isolated yield ([1]; amine bond, PPh3/DTBAD, THF, 69.2 mM): 77%
